Experimental data published in patent publication US7780978B2, “Oral pharmaceutical compositions and methods of using the same” (Childrens Hospital Los Angeles, priority 2003, dated 2010).

What was measured:
[1] = Steady state plasma and tissue levels of 4-HPR in mice fed or gavaged LXS compositions vs capsule contents (HPLC); type: in vivo; settings: mice, 120, 250 and 560 mg/kg/day
Protocol: FIG. 1. Comparison of 4-HPR in LXS matrix vs Capsule Formulation at 120 mg/kg/day. Cohorts of five mice were feed with 120 mg/kg/day of 4-HPR formulated in various LXS compositions, or 4-HPR expressed from capsules, mixed with mouse chow or Slim-Fast®, divided BID, ×4.5 days. Animals were sacrificed 3 hrs after the last dose and 4-HPR levels in plasma and tissues were assayed by HPLC. […] PLASMA: G1 vs capsule, P=0.006; LYM-X 5.59 vs capsule, P=0.06; LIVER: G1 vs capsule, P=0.013; LYM-X 5.59 vs capsule, P=0.045; LUNGS: G1 vs capsule, P=0.028; G2 vs capsule, P=0.05; KIDNEY: G1 vs capsule, P=0.007; LYM-X 5.59 vs capsule, P=0.06; BRAIN: G1 vs capsule, P=0.01; LYM-X 5.58 vs capsule, P=0.02. Statistical analysis by Student's t-test. Columns, in each set of columns, in sequence from left to right, represent LYM-X 5.57, LYM-X 5.58, LYM-X 5.60, LYM-X 5.59, Capsule Lot #R-6124, LYM-X 5.60 G1 (SLIMFAST™), and LYM-X 5.60 G2 (DI Water).
FIG. 2. Comparison of 4-HPR in LXS™ matrix vs Capsule Formulation at 250 mg/kg/day. […]
To test this hypothesis, we had various LXS™ compositions of 4-HPR prepared that varied in the LPC:MG:FA ratios of the LXS™ matrix. We then feed mice with equal doses of 4-HPR in the LXS™ compositions, or expressed as a slurry from the current oral 4-HPR capsules. […]

[2] = cited from earlier work

dose dependence of 4-HPR plasma and tissue levels [1]: dose-dependent
SMILES: CC1=C(/C=C/C(C)=C/C=C/C(C)=C/C(=O)Nc2ccc(O)cc2)C(C)(C)CCC1 [Fenretinide, all-trans-N-(4-hydroxyphenyl)retinamide]
solubility in aqueous solution [2]: minimally soluble
